Measured values reported in patent US20060014723A1, “Anti-parasitic uses of borinic acid complexes” (priority 2004, published 2006).
In brackets after ≈: the same amount, converted by molar mass.

How the values were obtained:
P. falciparum K1 = experiment: Malaria in vitro screening model (3H-hypoxanthine incorporation); assay type: cell-based, Plasmodium falciparum; conditions: for IC50: Plasmodium falciparum, K1
Protocol: […] P. falciparum K1 is used in this study. K1 (a clone originating from Thailand) is resistant to chloroquine and pyrimethamine. The strains are maintained in RPMI 1640 medium with 0.36 mM hypoxanthine, supplemented with 25 mM N 2-hydroxyethyipiperazine-N-2-ethane-sulphonic acid (HEPES), 25 mM NaHCO3, neomycin (100 U/mL) and 5 g/L of ALBUMAX® II (lipid-rich bovine serum albumin, GIBCO, Grand Island, N.Y., USA), together with 5% washed human A+ erythrocytes. All cultures and assays are conducted at 37° C. under an atmosphere of 4% CO2, 3% O2 and 93% N2. Cultures are kept in incubation chambers filled with the gas mixture. Subcultures are diluted to a parasitemia of between 0.1 and 0.5% and the medium is changed daily.
Antimalarial activity is assessed using an adaptation of the procedures described by Desjardins et al. (Antimicrob. Agents Chemother. 16:710-718, 1979), and Matile and Pink (In: Lefkovits, I. and Pernis, B. (Eds.), Immunological Methods Vol. IV, Academic Press, San Diego, pp. 221-234, 1990).
Stock drug solutions are prepared in 100% dimethylsulfoxide (DMSO) at 10 mg/mL, and heated or sonicated if necessary to dissolve the sample. After use, the stocks are kept at −20° C. For the assays, the compound is further diluted in serum-free culture medium and finally to the appropriate concentration in complete medium without hypoxanthine.
Assays are performed in sterile 96-well microtiter plates, each well containing 200 μl of parasite culture (0.15% parasitemia, 2.5% hematocrit) with or without serial drug solutions. Seven 2-fold dilutions are used, covering a range from […] to 0.078 μg/mL. For active compounds the highest concentration is lowered (e.g., to […]); for plant extracts the highest concentration is increased to 50 μg/mL. […] After 48 hours of incubation at 37° C., 0.5 μCi ^3H-hypoxanthine is added to each well. Cultures are incubated for a further 24 h before being harvested onto glass-fiber filters and washed with distilled water. The radioactivity is counted using a Betaplate liquid scintillation counter (Wallac, Zurich, Switzerland). The results are recorded as counts per minute per well at each drug concentration and expressed as percentage of the untreated controls. IC50 values are calculated from the sigmoidal inhibition curves using Microsoft EXCEL.

[1] = tested on: T. b. rhodesiense STIB 900; experiment: African sleeping sickness in vitro screening model (Alamar Blue); assay type: cell-based, Trypanosoma brucei rhodesiense; conditions: for IC50: Trypanosoma brucei
Protocol: Bloodstream from trypomastigotes of the strains (a) and (c) are maintained in Minimal Essential Medium (MEM) with Earle's salts supplemented according to Baltz, et al., (EMBO J. 4:1273-1277, 1985) with 25 mM N-2-hydroxyethylpiperazine-N′-2-ethane-sulphonic acid (HEPES), 1 g/L additional glucose, 1% MEM non-essential amino acids (100×), 0.2 mM 2-mercaptoethanol, 2 mM sodium pyruvate, 0.1 mM hypoxanthine and 15% heat-inactivated horse serum.
All cultures and assays are conducted at 37° C. under an atmosphere of 5% CO2 in air.
After use the stocks are kept at −20° C. For the assays, the compound is further diluted in serum-free culture medium and finally to the appropriate concentration in complete medium without hypoxanthine.
Assays are performed in 96-well microtiter plates, each well containing 100 μL of culture medium with 8×10^3 bloodstream forms with or without a serial drug dilution. The highest concentration for the test compounds is 90 μg/mL. Seven 3-fold drug dilutions are used, covering a range from 90 μg/mL to 0.123 μg/mL. Each drug is tested in duplicate. Active compounds are tested twice for confirmation. The final result is the mean of the four individual IC50 values. After 72 hrs of incubation, the plates are inspected under an inverted microscope to assure growth of the controls and sterile conditions.
(§1) Ten μL of Alamar Blue (12.5 mg resazurin dissolved in 100 mL distilled water) are now added to each well and the plates are incubated for another 2 hours. Then the plates are read with a Spectramax GEMINI XS microplate fluorometer (Molecular Devices Cooperation, Sunnyvale, Calif., USA) using an excitation wavelength of 536 nm and an emission wave length of 588 nm.
IC50 values are determined using the microplate reader software Softmax Pro (Molecular Devices Cooperation, Sunnyvale, Calif., USA).

[2] = tested on: Trypanosoma cruzi Tulahuen C2C4 strain; experiment: Chagas disease in vitro screening model (beta-galactosidase strain in L-6 cells); assay type: cell-based; conditions: for IC50: Trypanosoma cruzi, TULAHUEN, L6, read-out: T. cruzi IC50
Protocol: Trypanosoma cruzi Tulahuen C2C4 strain, containing the β-galactosidase (Lac Z) gene (Buckner et al., Antimicrob. Agents Chemother 40:2592-2597, 1996) is used for this study.
The infective amastigote and trypomastigote stages are cultivated in L-6 cells (a rat skeletal myoblast cell line) in RPMI 1640 medium supplemented with 2 mM L-glutamine and 10% heat-inactivated fetal bovine serum in 12.5 cm^2 tissue culture flasks. Amastigotes develop intracellularly, differentiate into trypomastigotes, and leave the host cell. These trypomastigotes infect new L-6 cells and are the stages used to initiate an infection in the assay. All cultures and assays are conducted at 37° C. under an atmosphere of 5% CO2 in air.
(§2) After use the stocks are kept at −20° C. For the assays, the compound is further diluted to the appropriate concentration using complete medium.
Assays are performed in sterile 96-well microtiter plates, each well containing 100 μl medium with 2×10^3 L-6 cells. After 24 hours, […] of a trypanosome suspension containing 5×10^3 trypomastigote bloodstream forms from culture are added to the wells. Forty-eight hours later, the medium is removed from the wells and replaced by […] fresh medium, with or without a serial drug dilution. At this point the L-6 cells should be infected with amastigotes and no free trypomastigotes should be in the medium. Seven 3-fold drug dilutions are used, covering a range from 90 μg/mL to 0.123 μg/mL. Each drug is tested in duplicate. Active compounds are tested twice for confirmation. After 96 hours of incubation the plates are inspected under an inverted microscope to assure growth of the controls and sterility.
Then the substrate CPRG/Nonidet (50 μl) is added to all wells. A colour reaction will become visible within 2-6 hours and can be read photometrically at 540 nm. Data are transferred into a graphics program (e.g., EXCEL), sigmoidal inhibition curves determined and IC50 values calculated.

[3] = tested on: Leishmania donovani strain MHOM/ET1671L82; experiment: Leishmaniasis in vitro screening model (axenic amastigotes, Alamar Blue); assay type: cell-based; conditions: for IC50: Leishmania donovani, read-out: L. donovani IC50
Protocol: The Leishmania donovani strain MHOM/ET1671L82 (obtained from Dr. S. Croft, London School of Hygiene and Tropical Medicine) is used. The strain is maintained in the Syrian Golden hamster. Amastigotes are collected from the spleen of an infected hamster. Amastigotes are grown in axenic culture at 37° C. in SM medium (Cunningham I., J. Protozoal. 24:325-329, 1977) at pH 5.4 supplemented with 10% heat-inactivated fetal bovine serum (FBS) under an atmosphere of 5% CO2 in air.
as §2
Assays are performed in 96-well flat-bottom microtiter plates (Costar, Corning Inc.), each well containing 100 μl of culture medium with 105 amastigotes from axenic culture with or without a serial drug dilution. Concentration of amastigotes is determined in a CASY cell analyzing system (Scharfe System, Reutlingen, Germany). Before the amastigotes are counted, the parasite culture is passed twice through a 22-gauge needle to break up clusters of amastigotes.
The highest concentration for the test compounds is 90 μg/mL. Seven 3-fold dilutions are used, covering a range from […]. Each drug is tested in duplicate. Active compounds are tested twice for confirmation. After 72 hours of incubation, the plates are inspected under an inverted microscope to assure growth of the controls and sterile conditions.
as §1, with “then” for “now”, “wave length” for “wavelength”
Data are analyzed using the microplate reader software Softmax Pro (Molecular Devices Cooperation, Sunnyvale, Calif., USA). Decrease of fluorescence (i.e. inhibition) is expressed as percentage of the fluorescence of control cultures and plotted against the drug concentrations. The IC50 value is calculated from the sigmoidal inhibition curve by the software program.

Compound | IC50 (P. falciparum K1) | IC50 [1] | IC50 [2] | IC50 [3] | P. falciparum IC50 (P. falciparum K1) | T. b. rhodesiense IC50 [1] | L. donovani IC50 [3] | T. cruzi IC50 [2]
Cc1ccc(B(Oc2cccc3cccnc23)c2ccccc2)cc1Cl [Compound 10, (3-Chloro-4-methylphenyl)phenylborinic acid quinolin-8-yl ester] | 1.5 µg/mL (≈ 4.19 µM) | 0.52 µg/mL (≈ 1.45 µM) | 4.2 µg/mL (≈ 11.7 µM) | 0.38 µg/mL (≈ 1.06 µM) |  |  |  | 
Fc1ccc(B(Oc2cccc3cccnc23)c2ccc(F)c(Cl)c2)cc1Cl [Compound 12, Bis(3-chloro-4-fluoro-phenyl)borinic acid quinolin-8-yl ester] | 1.5 µg/mL (≈ 3.62 µM) | 0.52 µg/mL (≈ 1.26 µM) | 5.6 µg/mL (≈ 13.5 µM) | 0.68 µg/mL (≈ 1.64 µM) |  |  |  | 
Fc1ccc(B(Oc2cccc3cccnc23)c2cccc(Cl)c2)cc1 [Compound 14, (3-Chlorophenyl)(4-fluorophenyl)borinic acid quinolin-8-yl ester] | 1.9 µg/mL (≈ 5.25 µM) | 0.5 µg/mL (≈ 1.38 µM) |  | 0.37 µg/mL (≈ 1.02 µM) | 1.93 µg/mL | 0.28 µg/mL | 0.48 µg/mL | 
Fc1ccc(B(Oc2cccc3cccnc23)c2ccc(Cl)cc2)cc1 [Compound 15, (4-chlorophenyl)(4-fluorophenyl) borinic acid quinolin-8-yl ester] | 1.82 µg/mL (≈ 5.03 µM) | 0.28 µg/mL (≈ 0.774 µM) | 0.906 µg/mL (≈ 2.51 µM) | 0.5 µg/mL (≈ 1.38 µM) |  |  |  | 
Fc1cccc(B(Oc2cccc3cccnc23)c2cccc(Cl)c2)c1 [Compound 17, (3-Chlorophenyl)(3-fluorophenyl)borinic acid quinolin-8-yl ester] | 1.77 µg/mL (≈ 4.89 µM) | 0.18 µg/mL (≈ 0.498 µM) | 1.06 µg/mL (≈ 2.95 µM) | 0.42 µg/mL (≈ 1.16 µM) |  |  |  | 
CC1(C)COC(c2cccc(B(Oc3cccc4cccnc34)c3cccc(F)c3)c2)=N1 [Compound 19, [3-(4,5-Dihydro-4,4-dimethyloxazol-2yl)phenyl](3-fluorophenyl)borinic acid quinolin-8-yl ester] | 1.89 µg/mL (≈ 4.45 µM) | 0.32 µg/mL (≈ 0.754 µM) | 1.33 µg/mL (≈ 3.15 µM) | 0.66 µg/mL (≈ 1.56 µM) |  |  |  | 
CC1(C)COC(c2cccc(B(Oc3cccc4cccnc34)C3CC3)c2)=N1 [Compound 20, Cyclopropyl[3-(4,5-dihydro-4,4-dimethyloxazol-2yl)phenyl]borinic acid quinolin-8-yl ester] | 1.84 µg/mL (≈ 4.97 µM) | 0.245 µg/mL (≈ 0.662 µM) | 0.86 µg/mL (≈ 2.32 µM) | 0.55 µg/mL (≈ 1.49 µM) |  |  |  | 
N#Cc1ccc(B(Oc2cccc3cccnc23)c2cccc(Cl)c2)cc1 [Compound 26, (3-Chlorophenyl)(4-cyanophenyl)borinic acid quinolin-8-yl ester] | 1.4 µg/mL (≈ 3.8 µM) | 0.29 µg/mL (≈ 0.787 µM) |  | 0.41 µg/mL (≈ 1.11 µM) | 1.44 µg/mL | 0.21 µg/mL | 0.55 µg/mL | 
Cc1ccc(B(OC(=O)c2ncccc2O)c2ccc(C)c(Cl)c2)cc1Cl [Compound 127, Bis(3-Chloro-4-methylphenyl)borinic acid 3-hydroxypicolinate ester] |  |  |  |  |  | 2.5 µg/mL | 0.36 µg/mL | 6.3 µg/mL
Cc1ccc(B(OC(=O)c2ncccc2C(=O)O)c2ccc(C)c(Cl)c2)cc1Cl [Compound 128] |  |  |  |  |  | 8 µg/mL | 0.61 µg/mL | 1.75 µg/mL
Cc1ccc(B(OC(=O)c2ncccc2N)c2ccc(C)c(Cl)c2)cc1Cl [Compound 129] |  |  |  |  |  | 4.4 µg/mL | 1.6 µg/mL | 0.855 µg/mL
O=C(OB(c1ccc(Cl)cc1)c1ccc(Cl)cc1)c1cccc(O)n1 [Compound 132] |  |  |  |  |  | 45.7 µg/mL | 14.1 µg/mL | 23.4 µg/mL
N#Cc1cccc(B(OC(=O)c2ncccc2O)c2cccnc2)c1 [Compound 133] |  |  |  |  |  | 0.86 µg/mL | 2.2 µg/mL | 10.4 µg/mL
Cc1cc(Cl)ccc1B(OC(=O)c1ncccc1O)c1ccc(Cl)cc1C [Compound 134] |  |  |  |  |  | 1.7 µg/mL | 0.12 µg/mL | 3.6 µg/mL
